Results reported in patent US12564638B2 (SHANGHAITECH UNIVERSITY, priority 2019, dated 2026).

These molecules were tested on HCC827 cells (EGFR Exon19 del, non-small cell lung cancer cells) (assay: Cell viability assay (WST/CCK8), HCC827 cells). Conditions: Homo sapiens, HCC827, 72 h, HCC827 (Exon19 Del), 72 hours, WST (CCK8); read-out: IC50 (half inhibitory concentration).
Type: cell-based
Description: The cell lines with abnormal EGFR expression used are as follows: • HCC827 cells (EGFR Exon19 del, non-small cell lung cancer cells); • PC9 cells (EGFR Exon 19 del, non-small cell lung cancer cells); • PC9BracA1 (EGFR Exon 19 del+T790M, non-small cell lung cancer cells) • H1975 (EGFR Exon T790M+L858R mutation, non-small cell lung cancer cell line) • BT474 cells (HER2 positive breast cancer cells)
All of the half inhibitory concentrations (IC50) of these compounds of the present invention were determined with WST reagent from Fuyuan Biotec Company. The specific experiment procedures are as follows: Cancer cells were planted in 96-well-plate at the density of 3 000 cells per well with 100 μL RPMI1640 completed culture medium. In the next day, compounds with indicated concentrations were added to the cells, DMSO was used as the negative control and the EGFR TKIs were used to treat cells as the positive groups. After 72 hours drug treatment, cell viability was measured by using the WST reagent following the instructions.
The cells were treated with the gradient concentration of these compounds (the maximum concentration: 10 μM; 3-fold dilution ratio, 10 concentration gradients) for 72 hours and then incubated with the WST (CCK8) reagent to determine the cell viability.
`COc1cc2ncnc(Nc3ccc(F)c(Cl)c3)c2cc1NC(=O)/C=C/CN1CCN(C(=O)COCCOCCOCCOCCSc2cccc3c2CN(C2CCC(=O)NC2=O)C3=O)CC1` (stereo not drawn) [SIAIS262003, (E)-N-(4-((3-chloro-4-fluorophenyl)amino)-7-methoxyquinazolin-6-yl)-4-(4-(14-((2-(2,6-dioxopiperidin-3-yl)-1-oxoisoindolin-4-yl)thio)-3,6,9,12-tetraoxatetradecan-1-oyl)piperazin-1-yl)but-2-enamide] was tested, and the IC50 was 104 nM. Work on `COc1cc2ncnc(Nc3ccc(F)c(Cl)c3)c2cc1NC(=O)/C=C/CN1CCC(N2CCN(CCCCCCNc3cccc4c3C(=O)N(C3CCC(=O)NC3=O)C4=O)CC2)CC1` (stereo not drawn) [SIAIS262072, (E)-N-(4-((3-chloro-4-fluorophenyl)amino)-7-methoxyquinazolin-6-yl)-4-(4-(4-(6-((2-(2,6-dioxopiperidin-3-yl)-1,3-dioxoisoindolin-4-yl)amino)hexyl)piperazin-1-yl)piperidin-1-yl)but-2-enamide] yielded an IC50 of 16.9 nM. Molecule `COc1cc2ncnc(Nc3ccc(F)c(Cl)c3)c2cc1NC(=O)/C=C/CN1CCN(C(=O)CCCCC(=O)N[C@H](C(=O)N2C[C@H](O)C[C@H]2C(=O)NCc2ccc(-c3scnc3C)cc2)C(C)(C)C)CC1` [SIAIS249042, (2S,4R)-1-((S)-2-(6-(4-((E)-4-((4-((3-chloro-4-fluorophenyl)amino)-7-methoxyquinazolin-6-yl)amino)-4-oxobut-2-en-1-yl)piperazin-1-yl)-6-oxohexanamido)-3,3-dimethylbutanoyl)-4-hydroxy-N-(4-(4-methylthiazol-5-yl)benzyl)pyrrolidine-2-carboxamide] has an IC50 of 31.3 nM. Work on `COc1cc2ncnc(Nc3ccc(F)c(Cl)c3)c2cc1NC(=O)/C=C/CN1CCN(C(=O)COCCOCCOCCOCCOCCSc2cccc3c2C(=O)N(C2CCC(=O)NC2=O)C3=O)CC1` (stereo not drawn) [SIAIS262008, (E)-N-(4-((3-chloro-4-fluorophenyl)amino)-7-methoxyquinazolin-6-yl)-4-(4-(17-((2-(2,6-dioxopiperidin-3-yl)-1,3-dioxoisoindolin-4-yl)thio)-3,6,9,12,15-pentaoxaheptadecanoyl)piperazin-1-yl)but-2-enamide] yielded an IC50 of 46.6 nM.

Same assay, conditions: Homo sapiens, HCC827, 72 h, Table 3, poziotinib-based compounds; HCC827 (Exon19 Del); 72 hours; WST (CCK8); read-out: IC50 (half inhibitory concentration)
`COc1cc2ncnc(Nc3ccc(Cl)c(Cl)c3F)c2cc1OC1CCN(C(=O)COCCOCC(=O)N[C@H](C(=O)N2C[C@H](O)C[C@H]2C(=O)NCc2ccc(-c3scnc3C)cc2)C(C)(C)C)CC1` [SIAIS249024, (2S,4R)-1-((S)-2-(2-(2-(2-(4-((4-((3,4-dichloro-2-fluorophenyl)amino)-7-methoxyquinazolin-6-yl)oxy)piperidin-1-yl)-2-oxoethoxy)ethoxy)acetamido)-3,3-dimethylbutanoyl)-4-hydroxy-N-(4-(4-methylthiazol-5-yl)benzyl)pyrrolidine-2-carboxamide] was tested, and the IC50 was 174 nM.

Same assay, conditions: Homo sapiens, HCC827, 72 h, Table 4, gefitinib and sapitinib-based compounds; HCC827 (Exon19 Del); 72 hours; WST; read-out: IC50 (half inhibitory concentration)
Molecule `COc1cc2ncnc(Nc3ccc(F)c(Cl)c3)c2cc1OCCCN1CCC(N2CCN(CCCCC#Cc3cccc4c3CN(C3CCC(=O)NC3=O)C4=O)CC2)CC1` (stereo not drawn) [SIAIS262090, 3-(4-(6-(4-(1-(3-((4-((3-chloro-4-fluorophenyl)amino)-7-methoxyquinazolin-6-yl)oxy)propyl)piperidin-4-yl)piperazin-1-yl)hex-1-yn-1-yl)-1-oxoisoindolin-2-yl)piperidine-2,6-dione] has an IC50 of 47 nM. Molecule `COc1cc2ncnc(Nc3cccc(Cl)c3F)c2cc1OC1CCN(CC(=O)NCCCCCCCSc2cccc3c2CN(C2CCC(=O)NC2=O)C3=O)CC1` (stereo not drawn) [SIAIS293069, 2-(4-((4-((3-chloro-2-fluorophenyl)amino)-7-methoxyquinazolin-6-yl)oxy)piperidin-1-yl)-N-(7-((2-(2,6-dioxopiperidin-3-yl)-1-oxoisoindolin-4-yl)thio)heptyl)acetamide] has an IC50 of 9.4 nM. In the case of `COc1cc2ncnc(Nc3ccc(F)c(Cl)c3)c2cc1OCCCN1CCN(C(=O)CSc2cccc3c2C(=O)N(C2CCC(=O)NC2=O)C3=O)CC1` (stereo not drawn) [SIAIS184164, 4-((2-(4-(3-((4-((3-chloro-4-fluorophenyl)amino)-7-methoxyquinazolin-6-yl)oxy)propyl)piperazin-1-yl)-2-oxoethyl)thio)-2-(2,6-dioxopiperidin-3-yl)isoindoline-1,3-dione], the IC50 is reported as 47 nM. For `COc1cc2ncnc(Nc3cccc(Cl)c3F)c2cc1OC1CCN(CC(=O)NCCCCCCSc2cccc3c2CN(C2CCC(=O)NC2=O)C3=O)CC1` (stereo not drawn) [SIAIS293068, 2-(4-((4-((3-chloro-2-fluorophenyl)amino)-7-methoxyquinazolin-6-yl)oxy)piperidin-1-yl)-N-(6-((2-(2,6-dioxopiperidin-3-yl)-1-oxoisoindolin-4-yl)thio)hexyl)acetamide], the IC50 was 1.2 nM. With `COc1cc2ncnc(Nc3ccc(F)c(Cl)c3)c2cc1OC1CCN(CC(=O)NCCSc2cccc3c2CN(C2CCC(=O)NC2=O)C3=O)CC1` (stereo not drawn) [SIAIS293047, 2-(4-((4-((3-chloro-4-fluorophenyl)amino)-7-methoxyquinazolin-6-yl)oxy)piperidin-1-yl)-N-(2-((2-(2,6-dioxopiperidin-3-yl)-1-oxoisoindolin-4-yl)thio)ethyl)acetamide] the IC50 was 12 nM. Work on `COc1cc2ncnc(Nc3ccc(F)c(Cl)c3)c2cc1OCCCN1CCC(N2CCN(C(=O)CCCCCSc3cccc4c3CN(C3CCC(=O)NC3=O)C4=O)CC2)CC1` (stereo not drawn) [SIAIS262087, 3-(4-((6-(4-(1-(3-((4-((3-chloro-4-fluorophenyl)amino)-7-methoxyquinazolin-6-yl)oxy)propyl)piperidin-4-yl)piperazin-1-yl)-6-oxohexyl)thio)-1-oxoisoindolin-2-yl)piperidine-2,6-dione] yielded an IC50 of 31 nM.

Same assay, conditions: Homo sapiens, HCC827, 72 h, Table 5, afatinib-based compounds; HCC827 (Exon19 Del); 72 hours; WST; read-out: IC50 (half inhibitory concentration)
With `O=C1CCC(N2C(=O)c3cccc(SCCOCCOCC(=O)Nc4cc5c(Nc6ccc(F)c(Cl)c6)ncnc5cc4O[C@H]4CCOC4)c3C2=O)C(=O)N1` (stereo partly drawn) [SIAIS184153, N-(4-((3-chloro-4-fluorophenyl)amino)-7-(((S)-tetrahydrofuran-3-yl)oxy)quinazolin-6-yl)-2-(2-(2-((2-(2,6-dioxopiperidin-3-yl)-1,3-dioxoisoindolin-4-yl)thio)ethoxy)ethoxy)acetamide] the IC50 was 316 nM. Work on `O=C1CCC(N2C(=O)c3cccc(SCCCCCC(=O)Nc4cc5c(Nc6ccc(F)c(Cl)c6)ncnc5cc4O[C@H]4CCOC4)c3C2=O)C(=O)N1` (stereo partly drawn) [SIAIS184095, N-(4-((3-chloro-4-fluorophenyl)amino)-7-(((S)-tetrahydrofuran-3-yl)oxy)quinazolin-6-yl)-6-((2-(2,6-dioxopiperidin-3-yl)-1,3-dioxoisoindolin-4-yl)thio)hexanamide] yielded an IC50 of 174 nM. With `O=C1CCC(N2Cc3c(SCCCC(=O)Nc4cc5c(Nc6ccc(F)c(Cl)c6)ncnc5cc4O[C@H]4CCOC4)cccc3C2=O)C(=O)N1` (stereo partly drawn) [SIAIS1210087, N-(4-((3-chloro-4-fluorophenyl)amino)-7-(((S)-tetrahydrofuran-3-yl)oxy)quinazolin-6-yl)-4-((2-(2,6-dioxopiperidin-3-yl)-1-oxoisoindolin-4-yl)thio)butanamide] the IC50 was 238 nM.

Same assay, conditions: Homo sapiens, HCC827, 72 h, Table 8, osimertinib-based compounds; HCC827; 72 hours; WST; read-out: IC50 (half inhibitory concentration)
`C=CC(=O)Nc1cc(Nc2nccc(-c3cn(C)c4ccccc34)n2)c(OC)cc1N(C)CCN(C)C(=O)CCCCCCCCCCSc1cccc2c1CN(C1CCC(=O)NC1=O)C2=O` (stereo not drawn) [SIAIS337061, N-(2-((2-acrylamido-5-methoxy-4-((4-(1-methyl-1H-indol-3-yl)pyrimidin-2-yl)amino)phenyl)(methyl)amino)ethyl)-11-((2-(2,6-dioxopiperidin-3-yl)-1-oxoisoindolin-4-yl)thio)-N-methylundecanamide] gave an IC50 of 353 nM. For `C=CC(=O)Nc1cc(Nc2nccc(-c3cn(C)c4ccccc34)n2)c(OC)cc1N(C)CCN(C)C(=O)COCCOCCOCCOCCSc1cccc2c1CN(C1CCC(=O)NC1=O)C2=O` (stereo not drawn) [SIAIS337077, N-(2-((2-acrylamido-5-methoxy-4-((4-(1-methyl-1H-indol-3-yl)pyrimidin-2-yl)amino)phenyl)(methyl)amino)ethyl)-14-((2-(2,6-dioxopiperidin-3-yl)-1-oxoisoindolin-4-yl)thio)-N-methyl-3,6,9,12-tetraoxatetradecanamide], the IC50 was 36 nM. `C=CC(=O)Nc1cc(Nc2nccc(-c3cn(C)c4ccccc34)n2)c(OC)cc1N(C)CCN(C)C(=O)COCCOCCSc1cccc2c1CN(C1CCC(=O)NC1=O)C2=O` (stereo not drawn) [SIAIS337075, N-(2-((2-(2-(2-(2-((2-(2,6-dioxopiperidin-3-yl)-1-oxoisoindolin-4-yl)thio)ethoxy)ethoxy)-N-methylacetamido)ethyl)(methyl)amino)-4-methoxy-5-((4-(1-methyl-1H-indol-3-yl)pyrimidin-2-yl)amino)phenyl)acrylamide] showed an IC50 of 170 nM. With `C=CC(=O)Nc1cc(Nc2nccc(-c3cn(C)c4ccccc34)n2)c(OC)cc1N(C)CCN(C)C(=O)COCCOCCOCCOCCOCCSc1cccc2c1CN(C1CCC(=O)NC1=O)C2=O` (stereo not drawn) [SIAIS337078, N-(2-((2-acrylamido-5-methoxy-4-((4-(1-methyl-1H-indol-3-yl)pyrimidin-2-yl)amino)phenyl)(methyl)amino)ethyl)-17-((2-(2,6-dioxopiperidin-3-yl)-1-oxoisoindolin-4-yl)thio)-N-methyl-3,6,9,12,15-pentaoxaheptadecanamide] the IC50 was 125 nM.
